Experimental data as given in patent US7371734B2, “Oligonucleotide compositions and their use for the modulation of immune responses” (Bioniche Life Sciences Inc., priority 2002, dated 2008).
Marks after values point to notes of the source that are not given here.

Key:
Assay type in all cases: cell-based
[1] = tested on: Human dendritic cells; assay: CD86 levels at the DC cell surface (flow cytometry); conditions: 100 μg, 48 hours
Procedure: (§1) Human dendritic cells were obtained from Clonetics (San Diego, Calif., USA) and were cultured in the medium recommended by Clonetics. DC were obtained from three different individuals (see Table 1). Major histocompatability typing was performed on each of these individuals and several of the HLA (human leukocyte antigens) types are shown.
(§2) DC from individuals B and C were seeded in 1.0 ml at 1.0×10^5 cells/ml in 6-well flat-bottomed tissue culture plates for 48 hours with 100 μg of 6 base N1A, N1B, N2A, N2B, N3A, N3B, N4A, N4B, N5A, N5B, N6A, N6B, N7A or N7B polynucleotides. The level of CD86 at the cell surface was determined after 48 hours of incubation by flow cytometry using a PE-conjugated monoclonal antibody directed to CD86 (Serotec) and analyzed by CELLQuest Pro. Results are expressed as the percentage of CD86^hi DC following treatment.

[2] = tested on: Human dendritic cells; assay: CD80 levels at the DC cell surface (flow cytometry); conditions: 100 μg, 48 hours
Procedure: as §1
as §2, with “CD80” for “CD86”, “FITC-conjugated” for “PE-conjugated”, “CD80 (Serotec, Oxford, U.K.)” for “CD86 (Serotec)”, “CELLQuest.” for “CELLQuest Pro.”, “CD80^hi” for “CD86^hi”

[3] = tested on: Human dendritic cells; assay: Induction of IL-12 production by DC (ELISA); conditions: 100 μg, 48 hours
Procedure: as §1
DC were seeded in 1.0 ml at 1.0×10^5 cells/ml in 6-well flat-bottomed tissue culture plates for 48 hours with 100 μg of 6 base N1A, N1B, N2A, N2B, N3A, N3B, N4A, N4B, N5A, N5B, N6A, N6B, N7A or N7B polynucleotides. Production of IL-12 was determined in 100 μl of culture supernatant using a commercial ELISA (BioSource) after 48 hours of incubation. Results are expressed as the “fold” (x) increase in IL-12 production by treated DC compared to control cells.

[4] = tested on: Human dendritic cells; assay: Increase in cell size and granularity of DC (flow cytometry); conditions: 100 μg polynucleotide, 48 hours
Procedure: as §1
DC were seeded in 1.0 ml at 1.0×10^5 cells/ml in 6-well flat-bottomed tissue culture plates for 48 hours with 100 μg of 6 base N1A, N1B, N2A, N2B, N3A, N3B, N4A, N4B, N5A, N5B, N6A, N6B, N7A or N7B polynucleotides. Cell size (FCS: forward side scatter) and granularity (S SC: side light scatter) were determined by flow cytometry using a FACSCalibur and analyzed using the CELLQuest Pro software (both from Becton-Dickinson, San Diego, Calif., USA). Percentage of DC showing a FCS>500 units and a SSC>400 units have been determined after treatment with 3-OH, 5-OH polynucleotides for DC isolated from three different individuals.

[5] = tested on: Human dendritic cells; assay: MHC-II levels at the DC cell surface (flow cytometry); conditions: DC from individual B; 100 μg, 48 hours
Procedure: as §1
as §2, with “individual” for “individuals”, “B” for “B and C”, “N3B,” for “N3B, N4A, N4B,”, “MHC II” for “CD86”, “FITC-conjugated” for “PE-conjugated”, “MHC II^hi” for “CD86^hi”

[6] = tested on: Human dendritic cells; assay: CD40 levels at the DC cell surface (flow cytometry); conditions: 100 μg, 48 hours
Procedure: as §1
DC from individuals B and C were seeded in 1.0 ml at 1.0×10^5 cells/ml in 6-well flat-bottomed tissue culture plates for 48 hours with 100 μg of 6 base N1A, N1B, N2A, N2B, N3A, N3B, N4A, N4B, N5A, N5B, N6A, N6B, N7A or N7B polynucleotides. The level of CD40 at the cell surface was determined after 48 hours of incubation by flow cytometry (FACSCalibur system) using a FITC-conjugated monoclonal antibody directed to CD40 and analyzed by CELLQuest Pro (all from Becton Dickinson). Results are expressed as the percentage of CD40^hi DC following treatment. The term “CD40^hi” refers to a population of cells identified by flow cytometry as having higher than baseline expression of CD40.

[7] = tested on: Human dendritic cells; assay: Induction of IFN-gamma production by DC (ELISA); conditions: 100 μg, 48 hours
Procedure: as §1
DC were seeded in 1.0 ml at 1.0×10^5 cells/ml in 6-well flat-bottomed tissue culture plates for 48 hours with 100 μg of6 base N1A, N1B, N2A, N2B, N3A, N3B, N4A, N4B, N5A, N5B, N6A, N6B, N7A or N7B polynucleotides. Production of IFN-gamma was determined in 100 μl of culture supernatant using a commercial ELISA (BioSource) after 48 hours of incubation. Results are expressed as the “fold” (x) increase in IFN-gamma production by treated DC compared to control cells.

[8] = tested on: Human dendritic cells; assay: Induction of IL-1beta production by DC (ELISA); conditions: 100 μg, 48 hours
Procedure: as §1
DC were seeded in 1.0 ml at 1.0×10^5 cells/ml in 6-well flat-bottomed tissue culture plates for 48 hours with 100 μg of 6 base N1A, N1B, N2A, N2B, N3A, N3B, N4A, N4B, N5A, N5B, N6A, N6B, N7A or N7B polynucleotides. Production of IL-1beta was determined in 100 μl of culture supernatant using a commercial ELISA (BioSource, Camarillo, Calif., USA) after 48 hours of incubation. Results are expressed as the “fold” (x) increase in IL-1beta production by treated DC compared to control cells.

[9] = tested on: Human dendritic cells; assay: Endocytosis of FITC-dextran by DC; conditions: DC from individual B, 100 μg, 24 hours, untreated control = 100
Procedure: as §1
DC from individual B were seeded in 1.0 ml at 1.0×10^5 cells/ml in 6-well flat-bottomed tissue culture plates for 24 hours with 1 mg/ml of FITC-dextran (20 kDa; Sigma-Aldrich) in the absence or presence of 100 μg of 6 base N2A, N2B, N3A, N3B, N5A, N5B, and N6B polynucleotides at 4° C. (control cell surface binding of FITC-dextran) and 37° C. (to assess endocytosis). Cells were washed three times with ice-cold phosphate buffered saline and analyzed by flow cytometry using CELLQuest Pro. Results are expressed as relative endocytic rate (normalized Δ Mean Fluorescence Value (Δ MFV)). Δ MFV=MFV of DC exposed to FITC-dextran at 37° C.−MFV of DC exposed to FITC-dextran at 4° C. Δ MFV=(ΔMFVsequence/ΔMFVcontrol)×100.

With 5′GGGGGG3′ [N5A] (unmodified DNA) the “The percentage of CD86^hi DC following treatment” value ([1]; DC from individual B) was 20%, the “The percentage of CD86^hi DC following treatment” value ([1]; DC from individual C) was 16% and the “The percentage of CD80^hi DC following treatment” value ([2]; DC from individual B) was 18%. The “The percentage of CD80^hi DC following treatment” value ([2]; DC from individual C) was 14%, the “IL-12 production by DC (fold increase compared to untreated DC)” value ([3]; DC isolated from individual A) was 0.9 fold and the “IL-12 production by DC (fold increase compared to untreated DC)” value ([3]; DC isolated from individual B) was 1.1 fold. For the same substance, the “IL-12 production by DC (fold increase compared to untreated DC)” value ([3]; DC isolated from individual C) was 1.0 fold, the “Percentage of DC showing a FCS > 500 units and a SSC > 400 units” value ([4]; DC isolated from individual A) was 10% and the “Percentage of DC showing a FCS > 500 units and a SSC > 400 units” value ([4]; DC isolated from individual B) was 19%. The “Percentage of DC showing a FCS > 500 units and a SSC > 400 units” value ([4]; DC isolated from individual C) was 36%, the “The percentage of MHC-II^hi DC following treatment” value [5] was 19% and the “The percentage of CD40^hi DC following treatment” value ([6]; DC from individual B) was 40** %. For the same substance, the “The percentage of CD40^hi DC following treatment” value ([6]; DC from individual C) was 30** %, the “IFN-gamma production by DC (fold increase compared to untreated DC)” value ([7]; DC isolated from individual A) was 1.1 fold and the “IFN-gamma production by DC (fold increase compared to untreated DC)” value ([7]; DC isolated from individual B) was 1.1 fold. The “IFN-gamma production by DC (fold increase compared to untreated DC)” value ([7]; DC isolated from individual C) was 1.0 fold, the “IL-1beta production by DC (fold increase compared to untreated DC)” value ([8]; DC isolated from individual A) was 1.1 fold and the “IL-1beta production by DC (fold increase compared to untreated DC)” value ([8]; DC isolated from individual B) was 1.1 fold. For the same substance, the “IL-1beta production by DC (fold increase compared to untreated DC)” value ([8]; DC isolated from individual C) was 1.0 fold and the “Relative endocytic rate (normalized Δ MFV)” value [9] was 209.
In the case of 5′GGTGGG3′ [N2A], the “The percentage of CD86^hi DC following treatment” value ([1]; DC from individual B) is reported as 16%, the “The percentage of CD86^hi DC following treatment” value ([1]; DC from individual C) is reported as 26% and the “The percentage of CD80^hi DC following treatment” value ([2]; DC from individual B) is reported as 25** %. For the same substance, the “The percentage of CD80^hi DC following treatment” value ([2]; DC from individual C) was 18%, the “IL-12 production by DC (fold increase compared to untreated DC)” value ([3]; DC isolated from individual A) was 7.9 fold and the “IL-12 production by DC (fold increase compared to untreated DC)” value ([3]; DC isolated from individual B) was 6.8 fold. For the same substance, the “IL-12 production by DC (fold increase compared to untreated DC)” value ([3]; DC isolated from individual C) was 1.6 fold, the “Percentage of DC showing a FCS > 500 units and a SSC > 400 units” value ([4]; DC isolated from individual A) was 6% and the “Percentage of DC showing a FCS > 500 units and a SSC > 400 units” value ([4]; DC isolated from individual B) was 14%. The “Percentage of DC showing a FCS > 500 units and a SSC > 400 units” value ([4]; DC isolated from individual C) was 21%, the “The percentage of MHC-II^hi DC following treatment” value [5] was 42** % and the “The percentage of CD40^hi DC following treatment” value ([6]; DC from individual B) was 27** %. For the same substance, the “The percentage of CD40^hi DC following treatment” value ([6]; DC from individual C) was 17%, the “IFN-gamma production by DC (fold increase compared to untreated DC)” value ([7]; DC isolated from individual A) was 1.0 fold and the “IFN-gamma production by DC (fold increase compared to untreated DC)” value ([7]; DC isolated from individual B) was 1.1 fold. For the same substance, the “IFN-gamma production by DC (fold increase compared to untreated DC)” value ([7]; DC isolated from individual C) was 1.0 fold, the “IL-1beta production by DC (fold increase compared to untreated DC)” value ([8]; DC isolated from individual A) was 1.0 fold and the “IL-1beta production by DC (fold increase compared to untreated DC)” value ([8]; DC isolated from individual B) was 1.0 fold. The “IL-1beta production by DC (fold increase compared to untreated DC)” value ([8]; DC isolated from individual C) was 1.0 fold and the “Relative endocytic rate (normalized Δ MFV)” value [9] was 334.
